Results as given in patent US20240067693A1, “POLYPEPTIDES AND USES THEREOF” (MEDIMMUNE LIMITED, priority 2020, published 2024).
Numbered stars: 1 amine (or outer) side, 2 acyl side, 3 side chain; on linkers, the order of the positions; unused ones are H or OH. Bridge positions count the residues as written; N and C are the ends. Square brackets hold non-standard residues; d marks the D form. Side chains are listed from the residue outwards. Peptide text beside a SMILES is read from it. * marks the point of attachment. C18 diacid = O=C(O)CCCCCCCCCCCCCCCCC(=O)*; γGlu = O=C(O)[C@H](CCC(=O)[*:2])N[*:1]; Dab = NCC[C@H](N)C(=O)O; Aib = CC(C)(N)C(=O)O

How the values were obtained:
[1] = target: T1, human amylin receptor (calcitonin receptor co-expressed with receptor activity modifying protein, RAMP3) (hAMYR3) (Homo sapiens, UniProt O60896+P30988); assay: cAMP production in 1321N1 cells with stable recombinant expression of human amylin receptor (hAMYR3); format: cell-based; conditions: for Ratio (selectivity hAMYR vs hCTR, ratio of EC50 values at the two receptors): EC50 hCTR / EC50 hAMYR3; for EC50: cAMP, 1321N1 cells, assay buffer with 0.1% BSA, read-out: EC50 (pM) hAMYR3
T1 construct: expressed in transfected cells
T1 sequence (P30988 25-474): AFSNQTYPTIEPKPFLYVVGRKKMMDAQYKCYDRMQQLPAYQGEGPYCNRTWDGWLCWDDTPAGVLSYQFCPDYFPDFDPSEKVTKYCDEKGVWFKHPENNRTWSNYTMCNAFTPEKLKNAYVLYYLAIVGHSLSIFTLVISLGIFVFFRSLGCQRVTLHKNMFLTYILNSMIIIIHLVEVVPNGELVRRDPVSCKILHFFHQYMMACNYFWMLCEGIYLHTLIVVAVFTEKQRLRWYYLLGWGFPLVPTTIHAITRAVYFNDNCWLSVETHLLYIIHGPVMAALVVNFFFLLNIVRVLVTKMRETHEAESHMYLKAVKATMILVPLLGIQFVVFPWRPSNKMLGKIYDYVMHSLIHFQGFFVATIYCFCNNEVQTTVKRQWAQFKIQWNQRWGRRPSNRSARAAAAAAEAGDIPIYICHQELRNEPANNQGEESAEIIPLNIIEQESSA
T1 sequence (O60896 24-148 partner): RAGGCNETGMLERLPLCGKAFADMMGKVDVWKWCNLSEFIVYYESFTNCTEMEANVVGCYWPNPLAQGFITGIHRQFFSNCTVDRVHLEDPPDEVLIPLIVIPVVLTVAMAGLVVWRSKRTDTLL
Outline: (§1)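 EC50 values come from 4-parameter logistic fits of HTRF cAMP signal, normalised to maximal calcitonin or amylin effect. Peptides were tested in duplicate for 30 min at RT in IBMX-containing (0.5 mM) BSA/HEPES buffer pH 7.4 on stable 1321N1 (human CTR, AMYR3) or HEK (rat CTR, AMYR3) lines.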

[2] = target: T2, human calcitonin receptor (hCTR) (Homo sapiens, UniProt P30988); assay: cAMP production in 1321N1 cells with stable recombinant expression of human calcitonin receptor (hCTR); format: cell-based; conditions: cAMP, 1321N1 cells, assay buffer with 0.1% BSA; read-out: EC50 (pM) hCTR
T2 construct: expressed in transfected cells
T2 sequence (P30988 25-474): T1 sequence (P30988 25-474)
Outline: as §1

Compound: CC[C@H](C)[C@H](NC(=O)[C@@H]1CCCN1C(=O)CNC(=O)[C@H](Cc1ccccc1)NC(=O)[C@H](CC(N)=O)NC(=O)[C@H](CCN)NC(=O)[C@H](CO)NC(=O)[C@H](CO)NC(=O)[C@H](Cc1c[nH]cn1)NC(=O)[C@@H](NC(=O)[C@H](CC(C)C)NC(=O)[C@H](Cc1ccccc1)NC(=O)[C@H](CC(N)=O)NC(=O)[C@H](C)NC(=O)[C@H](CC(C)C)NC(=O)[C@H](CCCNC(=N)N)NC(=O)[C@H](CCC(N)=O)NC(=O)[C@@H](NC(=O)[C@H](C)NC(=O)[C@@H]1CSSC[C@H](NC(=O)[C@H](CCCCN)NC(=O)[C@@H](N)CCCCNC(=O)CC[C@H](NC(=O)CCCCCCCCCCCCCCCCC(=O)O)C(=O)O)C(=O)N[C@@H](CC(N)=O)C(=O)N[C@@H]([C@@H](C)O)C(=O)N[C@@H](C)C(=O)N[C@@H]([C@@H](C)O)C(=O)N1)[C@@H](C)O)C(C)C)C(=O)N[C@@H](CC(C)C)C(=O)N1CCC[C@H]1C(=O)N1CCC[C@H]1C(=O)N[C@H](C(=O)N[C@@H](CC(N)=O)C(=O)N[C@H](C(=O)NCC(=O)N[C@@H](CO)C(=O)N[C@@H](CC(N)=O)C(=O)N[C@H](C(=O)N[C@@H](Cc1ccc(O)cc1)C(N)=O)[C@@H](C)O)C(C)C)[C@@H](C)O [Peptide 29, K(γE-C18diacid)K[CNTATC]ATQRLANFLVHSS(Dab)NFGPILPPTNVGSNTY-amide] (H-K([γGlu-C18 diacid])KCNTATCATQRLANFLVHSS[Dab]NFGPILPPTNVGSNTY-NH2; disulfide 3-8; N-terminus assumed)
- Ratio (selectivity hAMYR vs hCTR, ratio of EC50 values at the two receptors) [1]: 34
- EC50 [1]: 243 pM
- EC50 [2]: 8210 pM

Compound: CC[C@H](C)[C@H](NC(=O)[C@@H]1CCCN1C(=O)CNC(=O)[C@H](Cc1ccccc1)NC(=O)[C@H](CC(N)=O)NC(=O)C(C)(C)NC(=O)[C@H](CO)NC(=O)[C@H](CO)NC(=O)[C@H](Cc1c[nH]cn1)NC(=O)[C@@H](NC(=O)[C@H](CC(C)C)NC(=O)[C@H](Cc1ccccc1)NC(=O)[C@H](CC(N)=O)NC(=O)[C@H](C)NC(=O)[C@H](CC(C)C)NC(=O)[C@H](CCCNC(=N)N)NC(=O)[C@H](CCC(N)=O)NC(=O)[C@@H](NC(=O)[C@H](C)NC(=O)[C@@H]1CSSC[C@H](NC(=O)[C@@H](N)CCCCNC(=O)CC[C@H](NC(=O)CC[C@H](NC(=O)CCCCCCCCCCCCCCCCC(=O)O)C(=O)O)C(=O)O)C(=O)N[C@@H](CC(N)=O)C(=O)N[C@@H]([C@@H](C)O)C(=O)N[C@@H](C)C(=O)N[C@@H]([C@@H](C)O)C(=O)N1)[C@@H](C)O)C(C)C)C(=O)N[C@@H](CC(C)C)C(=O)N1CCC[C@H]1C(=O)N1CCC[C@H]1C(=O)N[C@H](C(=O)N[C@@H](CC(N)=O)C(=O)N[C@H](C(=O)NCC(=O)N[C@@H](CO)C(=O)NC(C)(C)C(=O)N[C@H](C(=O)N[C@@H](Cc1ccc(O)cc1)C(N)=O)[C@@H](C)O)C(C)C)[C@@H](C)O [Peptide 91, K(γE-γE-C18diacid)[CNTATC]ATQRLANFLVHSS(Aib)NFGPILPPTNVGS(Aib)TY-amide] (H-K([γGlu-γGlu-C18 diacid])CNTATCATQRLANFLVHSS[Aib]NFGPILPPTNVGS[Aib]TY-NH2; disulfide 2-7; N-terminus assumed)
- Ratio (selectivity hAMYR vs hCTR, ratio of EC50 values at the two receptors) [1]: 12
- EC50 [1]: 200 pM
- EC50 [2]: 2360 pM

Compound: CC[C@H](C)[C@H](NC(=O)[C@@H]1CCCN1C(=O)CNC(=O)[C@H](Cc1ccccc1)NC(=O)[C@H](CC(N)=O)NC(=O)[C@H](Cc1c[nH]cn1)NC(=O)[C@H](CO)NC(=O)[C@H](CO)NC(=O)[C@H](Cc1c[nH]cn1)NC(=O)C(C)(C)NC(=O)[C@H](CC(C)C)NC(=O)[C@H](Cc1ccccc1)NC(=O)[C@H](CCC(=O)O)NC(=O)[C@H](C)NC(=O)[C@H](CC(C)C)NC(=O)[C@H](CCCNC(=N)N)NC(=O)[C@H](CCC(N)=O)NC(=O)[C@@H](NC(=O)[C@H](C)NC(=O)[C@@H]1CSSC[C@H](NC(=O)[C@H](CCCCN)NC(=O)[C@@H](N)CCCCNC(=O)CC[C@H](NC(=O)CCCCCCCCCCCCCCCCC(=O)O)C(=O)O)C(=O)N[C@@H](CC(N)=O)C(=O)N[C@@H]([C@@H](C)O)C(=O)N[C@@H](C)C(=O)N[C@@H]([C@@H](C)O)C(=O)N1)[C@@H](C)O)C(=O)N[C@@H](CC(C)C)C(=O)N1CCC[C@H]1C(=O)N1CCC[C@H]1C(=O)N[C@H](C(=O)N[C@@H](CC(N)=O)C(=O)N[C@H](C(=O)NCC(=O)N[C@@H](CO)C(=O)N[C@@H](CC(N)=O)C(=O)N[C@H](C(=O)N[C@@H](Cc1ccc(O)cc1)C(N)=O)[C@@H](C)O)C(C)C)[C@@H](C)O [Peptide 130] (H-K([γGlu-C18 diacid])KCNTATCATQRLAEFL[Aib]HSSHNFGPILPPTNVGSNTY-NH2; disulfide 3-8; N-terminus assumed)
- Ratio (selectivity hAMYR vs hCTR, ratio of EC50 values at the two receptors) [1]: 15
- EC50 [1]: 446 pM
- EC50 [2]: 6690 pM

Compound: CC[C@H](C)[C@H](NC(=O)[C@@H]1CCCN1C(=O)C(C)(C)NC(=O)[C@H](Cc1ccccc1)NC(=O)[C@H](CC(N)=O)NC(=O)[C@H](CC(N)=O)NC(=O)[C@H](CO)NC(=O)[C@H](CO)NC(=O)[C@H](Cc1c[nH]cn1)NC(=O)[C@@H](NC(=O)[C@H](CC(C)C)NC(=O)[C@H](Cc1ccccc1)NC(=O)[C@H](CC(N)=O)NC(=O)[C@H](C)NC(=O)[C@H](CC(C)C)NC(=O)[C@H](CCCNC(=N)N)NC(=O)[C@H](CCC(N)=O)NC(=O)[C@@H](NC(=O)[C@H](C)NC(=O)[C@@H]1CSSC[C@H](NC(=O)[C@H](CCCCN)NC(=O)[C@@H](N)CCCCNC(=O)CC[C@H](NC(=O)CCCCCCCCCCCCCCCCC(=O)O)C(=O)O)C(=O)N[C@@H](CC(N)=O)C(=O)N[C@@H]([C@@H](C)O)C(=O)N[C@@H](C)C(=O)N[C@@H]([C@@H](C)O)C(=O)N1)[C@@H](C)O)C(C)C)C(=O)N[C@@H](CC(C)C)C(=O)N1CCC[C@H]1C(=O)N1CCC[C@H]1C(=O)N[C@H](C(=O)N[C@@H](CC(N)=O)C(=O)N[C@H](C(=O)NCC(=O)N[C@@H](CO)C(=O)N[C@@H](CC(N)=O)C(=O)N[C@H](C(=O)N[C@@H](Cc1ccc(O)cc1)C(N)=O)[C@@H](C)O)C(C)C)[C@@H](C)O [Peptide 110, K(γE-C18diacid)K[CNTATC]ATQRLANFLVHSSNNF(Aib)PILPPTNVGSNTY-amide] (H-K([γGlu-C18 diacid])KCNTATCATQRLANFLVHSSNNF[Aib]PILPPTNVGSNTY-NH2; disulfide 3-8; N-terminus assumed)
- Ratio (selectivity hAMYR vs hCTR, ratio of EC50 values at the two receptors) [1]: 3
- EC50 [1]: 204 pM
- EC50 [2]: 541 pM

Compound: CC[C@H](C)[C@H](NC(=O)[C@@H]1CCCN1C(=O)CNC(=O)[C@H](Cc1ccccc1)NC(=O)[C@H](CC(N)=O)NC(=O)C(C)(C)NC(=O)[C@H](CO)NC(=O)[C@H](CO)NC(=O)[C@H](Cc1c[nH]cn1)NC(=O)[C@@H](NC(=O)[C@H](CC(C)C)NC(=O)[C@H](Cc1ccccc1)NC(=O)[C@H](CC(N)=O)NC(=O)[C@H](C)NC(=O)[C@H](CC(C)C)NC(=O)[C@H](CCCNC(=N)N)NC(=O)[C@H](CCC(N)=O)NC(=O)[C@@H](NC(=O)[C@H](C)NC(=O)[C@@H]1CSSC[C@H](NC(=O)[C@H](CCCCN)NC(=O)[C@@H](N)CCCCNC(=O)CC[C@H](NC(=O)CCCCCCCCCCCCCCCCC(=O)O)C(=O)O)C(=O)N[C@@H](CC(N)=O)C(=O)N[C@@H]([C@@H](C)O)C(=O)N[C@@H](C)C(=O)N[C@@H]([C@@H](C)O)C(=O)N1)[C@@H](C)O)C(C)C)C(=O)N[C@@H](CC(C)C)C(=O)N1CCC[C@H]1C(=O)N1CCC[C@H]1C(=O)N[C@H](C(=O)N[C@@H](CC(N)=O)C(=O)N[C@H](C(=O)NCC(=O)N[C@@H](CO)C(=O)N[C@@H](CC(N)=O)C(=O)NC(C)(C)C(=O)N[C@@H](Cc1ccc(O)cc1)C(N)=O)C(C)C)[C@@H](C)O [Peptide 83, K(γE-C18diacid)K[CNTATC]ATQRLANFLVHSS(Aib)NFGPILPPTNVGSN(Aib)Y-amide] (H-K([γGlu-C18 diacid])KCNTATCATQRLANFLVHSS[Aib]NFGPILPPTNVGSN[Aib]Y-NH2; disulfide 3-8; N-terminus assumed)
- Ratio (selectivity hAMYR vs hCTR, ratio of EC50 values at the two receptors) [1]: 11
- EC50 [1]: 599 pM
- EC50 [2]: 6340 pM
